We go through two substances from patent US5856303A, “Peptide, a bronchus-expanding agent, and a blood-flow-improving agent” (Itoham Foods, Inc., priority 1995, dated 1999).

Ends that are not written are not given here.

One assay deals with Wistar male rats. Description: Blood-flow increasing action in anesthetized rats (femoral artery blood flow, carotid blood pressure). It is filed as in vivo. The following applies: 100 pmol/kg intraarterially, right femoral artery. As to the method:
Purified peptides 1 to 15 obtained in Examples 1 to 15 were examined for their blood-flow increasing action and compared with those of VIP and PACAP. Wistar male rats each weighing 220 to 250 g were anesthetized by intraperitoneal administration of pentobarbital (25 mg/kg) and fixed on their back. An arterial canula was inserted into the carotid and then connected to a blood-pressure transducer (DX-300, Nippon Koden, Japan) via a doom kit (SCK-512, Nippon Koden) filled with heparin-containing physiological saline (10 U/ml) to measure blood pressure with a strain blood-pressure amplifier (AP-601G, Nippon Koden). Further, a blood-flow measurement probe (FR-030T, Nippon Koden) was attached to the right femoral artery and then connected to an electromagnetic blood-flow meter (MFV-3200, Nippon Koden) to measure blood flow. The dosage of each peptide intraarterially administrated was 100 pmol/kg.

The next assay relates to bronchial smooth muscle. Description: Bronchus-expanding action: relaxation of carbachol-contracted guinea pig tracheal chain in organ bath. Type of assay: cell-based, guinea pigs. The following applies: 0.1 μmol/l carbachol-contracted trachea. From the text: Purified peptides 1 to 15 obtained in Examples 1 to 15 were examined for their bronchus-expanding action in the following manner and compared with that of VIP and PACAP.
Male guinea pigs each weighing 450 to 500 g were cut at the jugular veins to open the chests, and immediately the tracheae were immediately removed. Their tracheae were immediately placed in a Krebs solution and cut into loops and then formed into a chain by linking the cartilage parts with one another via a steel string. Then, the cartilage parts in the opposite side to the smooth muscular parts were cut such that the smooth muscular parts were attached to one another. The resulting sample was placed in an about 10-ml isothermic organ bath and perpendicularly suspended. The lower part was fixed and the upper part was connected to a grass force transducer with a load of 1.4 g. A gas of 94% oxygen and 6% carbon dioxide was sufficiently blown into this sample while a Krebs solution containing 0.1μ mol/l carbachol was dropped to it at a rate of 0.33 ml/min. to determine relaxation action. Because the relaxation reaction occurs depending on the content of a test sample in this drop solution, this can be used to compare the relaxation action of VIP and PACAP and that of the peptides of the invention on the bronchial smooth muscle.
A solution of each of […], PACAP and the peptides of the invention was prepared in a concentration as high as 100-fold than the final concentration so that its concentration in the organ bath could be adjusted. 30 minutes after the carbachol-containing Krebs solution was dropped, 100 μl of the sample solution was dropped.
It was assumed that the degree of contraction of the smooth muscle is 0 in the absence of carbachol and the degree is 100 in the presence of carbachol. Minimum contraction degree A (i.e. maximum relaxation value) in the presence of the sample was determined, and maximum relaxation degree B was calculated as follows:
Maximum relaxation degree B (%)=100-A
The time required to reach half of the maximum relaxation value (referred to hereinafter as "half-time T") after the addition of the sample was determined.
A change in the relaxation degree of the bronchial smooth muscle with time was determined using each peptide at 3 dosages of 0.3 μM, 1 μM, and 3 μM respectively. The results are shown in the drawings: PACAP in FIG. 1; peptide 5 obtained in Example 5, in FIG. 2; VIP in FIG. 3; and peptide 11 obtained in Example 11, in FIG. 4. The maximum relaxation degree B at a dosage of 3 μM is 75% for peptide 5 and 80% for peptide 11, and half-time T is 360 minutes or more in both the cases.

For the substance vasoactive intestinal peptide [VIP], in the assay with Wistar male rats, the “Blood Flow (increase in blood flow)” value was found to be 10.18 ± 3.38 mL/min. The “Half-time T (time required to reach half of the maximum relaxation value)” value in the assay with bronchial smooth muscle (0.3 μM) was found to be 130 min; with bronchial smooth muscle (1 μM), 150 min; in the assay on bronchial smooth muscle (3 μM), 240 min. Besides, the “Maximum relaxation degree B” value in the assay on bronchial smooth muscle (0.3 μM) was determined as 45%; in the assay with bronchial smooth muscle (1 μM) it was 80%; in the assay with bronchial smooth muscle (3 μM) it was 85%.
As to “pituitary adenylate cyclase activating polypeptide (HSDGIFTDSYSRYRKQMAVKKYLAAVLGKRYKQRVKNK; ends and bridges not checked; UniProt P16613 132-169, looked up) [PACAP, structurally determined peptide consisting of 38 amino acid residues, isolated from sheep hypothalamus]”, the “Blood Flow (increase in blood flow)” value in the assay on Wistar male rats was determined as 16.04 ± 5.92 mL/min. Further, the “Half-time T (time required to reach half of the maximum relaxation value)” value worked out at 60 min in the assay with bronchial smooth muscle (0.3 μM), 60 min in the assay with bronchial smooth muscle (1 μM) and 100 min in the assay on bronchial smooth muscle (3 μM). The entries for the “Maximum relaxation degree B” value in the assay on bronchial smooth muscle (0.3 μM), with bronchial smooth muscle (1 μM) and in the assay on bronchial smooth muscle (3 μM) were 40%, 90% and 90%, respectively.
